Reference: patent US20260053861A1, “CELL COMPOSITIONS AND METHODS OF USING THE SAME” (THE REGENTS OF THE UNIVERSITY OF CALIFORNIA, priority 2022, published 2026)
Where a name gives a salt, the structure may show the parent alone.

Tested on: hPSC-SCs
Settings: not given

| SMILES | z.score.t |
| --- | --- |
| CC(C)(C)CC(C)(C)c1ccc(OCCOCC[N+](C)(C)Cc2ccccc2)cc1 [Benzethonium chloride] | −1.091 |
| CC[C@H](CC[C@@H](C)[C@H]1CC[C@H]2[C@@H]3CC=C4C[C@@H](O)CC[C@]4(C)[C@H]3CC[C@]12C)C(C)C [Beta-sistosterol] | 0.1543 |
| CN1CCc2cc3c(cc2[C@H]1[C@@H]1OC(=O)c2c1ccc1c2OCO1)OCO3 [Bicuculline (+)] | 0.5437 |
| COc1cc2c(cc1O)C[C@H]1c3c(cc(O)c(OC)c3-2)CCN1C [Boldine] | 0.767 |
| CCCCOC(=O)c1ccc(O)cc1 [Butylparaben] | −0.2359 |
| CN1CC[C@]23c4ccccc4N[C@H]1[C@]21CCN(C)[C@H]3Nc2ccccc21 [Calycanthine] | 0.4849 |
| NC(N)=NOCC[C@H](N)C(=O)O.O.O=S(=O)(O)O [Canavanine sulfate monohydrate (L, +)] | 1.095 |
| C[C@@]12C(=O)OC(=O)[C@]1(C)[C@H]1CC[C@@H]2O1 [Cantharidin] | −2.175 |
| CCCC(C)(COC(N)=O)COC(=O)NC(C)C (stereo not shown) [Carisoprodol] | 0.425 |
| CCC1=C[C@@H]2CN3CCc4c([nH]c5ccccc45)[C@@](C(=O)OC)(C2)[C@@H]13 [Catharanthine] | 0.2625 |

Same assay, conditions: HTS viability of hPSC-SCs in the presence of 30 mM glucose; Prestwick library; Table S4

| SMILES | z.score.t |
| --- | --- |
| CC(Cc1cccc(C(F)(F)F)c1)NCCOC(=O)c1ccccc1 (stereo not shown) [Benfluorex hydrochloride] | 1.095 |
| C/C(=C(\CCOP(=O)(O)O)SC(=O)c1ccccc1)N(C=O)Cc1cnc(C)nc1N [Benfotiamine] | −0.1239 |
| CCCCOc1cc(C(=O)OCCN(CC)CC)ccc1N [Benoxinate hydrochloride] | 0.05523 |
| O=C(CCCN1CCC(n2c(O)nc3ccccc32)CC1)c1ccc(F)cc1 [Benperidol] | 0.1556 |
| NC(CO)C(=O)NNCc1ccc(O)c(O)c1O (stereo not shown) [Benserazide hydrochloride] | −0.2359 |
| NC(=NCc1ccccc1)NC(=O)c1nc(Cl)c(N)nc1N [Benzamil hydrochloride] | −1.515 |
| CC1(C)S[C@@H]2[C@H](NC(=O)Cc3ccccc3)C(=O)N2[C@H]1C(=O)O.CC1(C)S[C@@H]2[C@H](NC(=O)Cc3ccccc3)C(=O)N2[C@H]1C(=O)O.c1ccc(CNCCNCc2ccccc2)cc1 [Benzathine benzylpenicillin] | −0.08998 |
| CCOC(=O)c1ccc(N)cc1 [Benzocaine] | −0.8317 |
| CCCCNc1ccc(C(=O)OCCOCCOCCOCCOCCOCCOCCOCCOCCOC)cc1 [Benzonatate] | 0.6386 |
| NS(=O)(=O)c1cc2c(cc1Cl)N=C(CSCc1ccccc1)NS2(=O)=O [Benzthiazide] | 0.3022 |
| CN(C)CCCOc1nn(Cc2ccccc2)c2ccccc12 [Benzydamine hydrochloride] | −1.272 |
| CC1(C)S[C@@H]2[C@H](NC(=O)Cc3ccccc3)C(=O)N2[C@H]1C(=O)O [Benzylpenicillin sodium] | −1.3 |
| C[N+](C)(CCOc1ccccc1)Cc1ccccc1.O=C([O-])c1cc2ccccc2cc1O [Bephenium hydroxynaphthoate] | 0.5158 |
| CC(C)COCC(CN(Cc1ccccc1)c1ccccc1)N1CCCC1 (stereo not shown) [Bepridil hydrochloride] | −0.5726 |
| COc1ccc2cc3[n+](cc2c1OC)CCc1cc2c(cc1-3)OCO2 [Berberine chloride] | 1.018 |
| COc1c(O)cc2c(c1O)[C@@H]1O[C@H](CO)[C@@H](O)[C@H](O)[C@H]1OC2=O [Bergenin monohydrate] | 1.238 |
| CNCCc1ccccn1.CS(=O)(=O)O.CS(=O)(=O)O [Betahistine mesylate] | −0.6301 |
| C[C@H]1C[C@H]2[C@@H]3CCC4=CC(=O)C=C[C@]4(C)[C@@]3(F)[C@@H](O)C[C@]2(C)[C@@]1(O)C(=O)CO [Betamethasone] | 0.8711 |
| CC(C)NCC(O)COc1ccc(CCOCC2CC2)cc1 (stereo not shown) [Betaxolol hydrochloride] | −0.5337 |
| NCCc1cc[nH]n1 [Betazole hydrochloride] | 1.681 |
| CC(C[N+](C)(C)C)OC(N)=O (stereo not shown) [Bethanechol chloride] | 0.3236 |
| C[N+]1(C)C[C@H](O)C[C@H]1C(=O)[O-] [Betonicine] | 1.194 |

| SMILES | z.score.t |
| --- | --- |
| C=C(C)[C@@H]1CC[C@]2(CO)CC[C@]3(C)[C@H](CC[C@@H]4[C@@]5(C)CC[C@H](O)C(C)(C)[C@@H]5CC[C@]43C)[C@@H]12 [Betulin] | −1.025 |
| C=C(C)[C@@H]1CC[C@]2(C(=O)O)CC[C@]3(C)[C@H](CC[C@@H]4[C@@]5(C)CC[C@H](O)C(C)(C)[C@@H]5CC[C@]43C)[C@@H]12 [Betulinic acid] | −1.832 |
| CC(C)(Oc1ccc(CCNC(=O)c2ccc(Cl)cc2)cc1)C(=O)O [Bezafibrate] | 1.266 |
| O=C(O)CCCC[C@@H]1SC[C@@H]2NC(=O)N[C@@H]21 [Biotin] | 0.2189 |
| OC(CCN1CCCCC1)(c1ccccc1)C1CC2C=CC1C2 (stereo not shown) [Biperiden hydrochloride] | 0.04918 |
| CC(=O)Oc1ccc(C(c2ccc(OC(C)=O)cc2)c2ccccn2)cc1 [Bisacodyl] | 0.4849 |
| CC(C)NCC(O)COc1ccc(COCCOC(C)C)cc1 (stereo not shown) [Bisoprolol fumarate] | −0.1003 |
| CC[N+](C)(C)Cc1ccccc1Br [Bretylium tosylate] | −0.3895 |
| CCN[C@H]1CN(CCCOC)S(=O)(=O)c2sc(S(N)(=O)=O)cc21 [Brinzolamide] | 0.7491 |
| CCN(CC)CCNC(=O)c1cc(Br)c(N)cc1OC [Bromopride] | −0.3895 |
| O=C(CCCN1CCC(O)(c2ccc(Br)cc2)CC1)c1ccc(F)cc1 [Bromperidol] | 1.239 |
| CN(C)CCC(c1ccc(Br)cc1)c1ccccn1 (stereo not shown) [Brompheniramine maleate] | −0.8478 |
| CCCC(=O)Nc1ncnc2c1ncn2[C@@H]1O[C@@H]2COP(=O)(O)O[C@H]2[C@H]1OC(=O)CCC [Bucladesine sodium salt] | 0.7727 |
| CCCC1O[C@@H]2C[C@H]3[C@@H]4CCC5=CC(=O)C=C[C@]5(C)[C@H]4[C@@H](O)C[C@]3(C)[C@]2(C(=O)CO)O1 (stereo partly shown) [Budesonide] | 1.74 |
| CCCCOc1ccc(CC(=O)NO)cc1 [Bufexamac] | −0.6623 |
| COc1cc(OC)c(C(=O)CCCN2CCCC2)c(OC)c1 [Buflomedil hydrochloride] | 0.3641 |
| CCCCNc1cc(C(=O)O)cc(S(N)(=O)=O)c1Oc1ccccc1 [Bumetanide] | 1.181 |
| CCCCN1CCCCC1C(=O)Nc1c(C)cccc1C (stereo not shown) [Bupivacaine hydrochloride] | −0.3156 |
| CC(NC(C)(C)C)C(=O)c1cccc(Cl)c1 (stereo not shown) [Bupropion hydrochloride] | 2.803 |
| CCCCN(CCCC)CCCOC(=O)c1ccc(N)cc1 [Butacaine] | −0.3023 |
| CCCCOC(=O)c1ccc(N)cc1 [Butamben] | 0.8465 |
| Clc1ccc(CCC(Cn2ccnc2)Sc2c(Cl)cccc2Cl)cc1 (stereo not shown) [Butoconazole nitrate] | −1.151 |

| SMILES | z.score.t |
| --- | --- |
| O=C(O)/C=C/c1ccc(O)c(O)c1 [Caffeic acid] | 0.9865 |
| C=C1CC[C@H](O)C/C1=C/C=C1\CCC[C@]2(C)[C@@H]([C@H](C)/C=C/[C@H](C)C(C)C)CC[C@@H]12 [Calciferol] | 0.4451 |
| CC[C@@]1(O)C(=O)OCc2c1cc1n(c2=O)Cc2cc3ccccc3nc2-1 [Camptothecine (S, +)] | −1.163 |
| C[C@]12CCC(=O)C=C1C=C[C@@H]1[C@@H]2CC[C@@]2(C)[C@H]1CC[C@@]2(O)CCC(=O)O [Canrenoic acid potassium salt] | 0.05523 |
| COc1cc(CNC(=O)CCCC/C=C/C(C)C)ccc1O [Capsaicin] | 0.03421 |
| C[C@H](CS)C(=O)N1CCC[C@H]1C(=O)O [Captopril] | 2.207 |
| C[N+](C)(C)CCOC(N)=O [Carbachol] | −0.1239 |
| NC(=O)N1c2ccccc2C=Cc2ccccc21 [Carbamazepine] | 0.8158 |
| CC1(C)[C@@H](OC(=O)CCC(=O)O)CC[C@]2(C)[C@H]3C(=O)C=C4[C@@H]5C[C@@](C)(C(=O)O)CC[C@]5(C)CC[C@@]4(C)[C@]3(C)CC[C@@H]12 [Carbenoxolone disodium salt] | 1.163 |
| CCN(CC)CCOCCOC(=O)C1(c2ccccc2)CCCC1 [Carbetapentane citrate] | 0.3024 |
| CCOC(=O)n1ccn(C)c1=S [Carbimazole] | −0.2276 |
| NCCC(=O)NCCc1c[nH]cn1 [Carcinine] | 0.8711 |
| CC(C)(C)NCC(O)COc1cccc2c1CCC(=O)N2 (stereo not shown) [Carteolol hydrochloride] | 1.266 |
| N[C@@H](C(=O)N[C@@H]1C(=O)N2C(C(=O)O)=C(Cl)CS[C@H]12)c1ccccc1 [Cefaclor] | −0.7233 |
| CC1=C(C(=O)O)N2C(=O)[C@@H](NC(=O)[C@H](N)c3ccc(O)cc3)[C@H]2SC1 [Cefadroxil] | 0.5046 |
| NC(=O)c1cc[n+](CC2=C(C(=O)[O-])N3C(=O)[C@@H](NC(=O)Cc4cccs4)[C@H]3SC2)cc1 [Cefalonium] | −0.3867 |
| Cn1nnnc1SCC1=C(C(=O)O)N2C(=O)[C@@H](NC(=O)[C@H](O)c3ccccc3)[C@H]2SC1 [Cefamandole sodium salt] | −0.7376 |
| Cc1nnc(SCC2=C(C(=O)O)N3C(=O)[C@@H](NC(=O)Cn4cnnn4)[C@H]3SC2)s1 [Cefazolin sodium salt] | −0.6194 |
| CO/N=C(\C(=O)N[C@@H]1C(=O)N2C(C(=O)O)=C(C[N+]3(C)CCCC3)CS[C@H]12)c1csc(N)n1 [Cefepime hydrochloride] | −0.9926 |
| C=CC1=C(C(=O)O)N2C(=O)[C@@H](NC(=O)/C(=N\OCC(=O)O)c3csc(N)n3)[C@H]2SC1 [Cefixime] | 0.5046 |
| CO[C@@]1(NC(=O)CSCC#N)C(=O)N2C(C(=O)O)=C(CSc3nnnn3C)CS[C@@H]21 [Cefmetazole sodium salt] | 0.1916 |
| CCN1CCN(C(=O)N[C@@H](C(=O)N[C@@H]2C(=O)N3C(C(=O)O)=C(CSc4nnnn4C)CS[C@H]23)c2ccc(O)cc2)C(=O)C1=O [Cefoperazone dihydrate] | −0.7233 |
